From patent US8188077B2, “Apoptosis-inducing agents for the treatment of cancer and immune and autoimmune diseases” (Abbott Laboratories, priority 2010, dated 2012) come the findings set out here.

The experiment addresses T1, Bcl-2 protein (Homo sapiens, UniProt P10415, DELINS35-91DVEENRTEAPEGTESE, form not given).
T1 construct: fused on or other part: Bcl-xL (Q07817) residues 29-44 stand in place of Bcl-2's own unstructured loop 35-91; The C-terminal membrane anchor (208-239) is absent
The experiment is described as follows: Bcl-2 fluorescence polarization assay (FPA) binding. The conditions noted are these: 10 nM Bcl-2 protein, 1 nM fluorescein-labeled BAX peptide, room temperature, read-out: Bcl-2 FPA 11pt Ki. In a few lines:
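Competitive fluorescence polarization with 10 nM Bcl-2 protein and 1 nM fluorescein-labeled BAX peptide in 20 mM phosphate pH 7.4, 1 mM EDTA, 0.05% PF-68. Compound dilutions in DMSO spanned […] to 10 pM; mix shaken 2 min, polarization read at room temperature (ex 485/em 530 nm); Ki values calculated.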

SMILES strings stand for the structures. A value given as a limit tells only on which side of the number the result lay.

T1 sequence (P10415 with tags, fused parts or gaps with the stated changes): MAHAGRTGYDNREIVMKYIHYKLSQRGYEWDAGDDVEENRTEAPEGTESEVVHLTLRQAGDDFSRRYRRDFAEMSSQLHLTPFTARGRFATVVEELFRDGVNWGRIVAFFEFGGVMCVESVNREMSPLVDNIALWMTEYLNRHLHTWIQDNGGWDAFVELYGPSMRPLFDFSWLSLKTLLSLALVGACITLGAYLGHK

In the case of `O=C(NS(=O)(=O)c1ccc(NCC2CCOCC2)c([N+](=O)[O-])c1)c1ccc(N2CCN(Cc3ccccc3C(=C(c3ccccc3)c3ccccc3)c3ccccc3)CC2)cc1` [Example 65, N-({3-nitro-4-[(tetrahydro-2H-pyran-4-ylmethyl)amino]phenyl}sulfonyl)-4-{4-[2-(triphenylvinyl)benzyl]piperazin-1-yl}benzamide], the Ki is 928 nM.
As to `CN1c2ccccc2-c2ccccc2C1c1ccccc1CN1CCN(c2ccc(C(=O)NS(=O)(=O)c3ccc(NCC4CCOCC4)c([N+](=O)[O-])c3)cc2)CC1` (centres unmarked) [Example 66, 4-{4-[2-(5-methyl-5,6-dihydrophenanthridin-6-yl)benzyl]piperazin-1-yl}-N-({3-nitro-4-[(tetrahydro-2H-pyran-4-ylmethyl)amino]phenyl}sulfonyl)benzamide], the Ki turned out to be 7.87 nM.
The result for `CC1(C)OB(c2ccccc2CN2CCN(c3ccc(C(=O)NS(=O)(=O)c4ccc(NCC5CCOCC5)c([N+](=O)[O-])c4)cc3)CC2)OC1(C)C` [Example 67, N-({3-nitro-4-[(tetrahydro-2H-pyran-4-ylmethyl)amino]phenyl}sulfonyl)-4-{4-[2-(4,4,5,5-tetramethyl-1,3,2-dioxaborolan-2-yl)benzyl]piperazin-1-yl}benzamide] reads 4040 nM; that for `COc1cccc(OC)c1C(=O)c1sccc1-c1ccccc1C=C1CCN(c2ccc(C(=O)NS(=O)(=O)c3ccc(NCC4CCOCC4)c([N+](=O)[O-])c3)cc2)CC1` [Example 68, 4-(4-{2-[2-(2,6-dimethoxybenzoyl)-3-thienyl]benzylidene}piperidin-1-yl)-N-({3-nitro-4-[(tetrahydro-2H-pyran-4-ylmethyl)amino]phenyl}sulfonyl)benzamide], 92.6 nM.
For `O=C(NS(=O)(=O)c1ccc(NCC2CCOCC2)c([N+](=O)[O-])c1)c1ccc(N2CCC(=Cc3ccccc3-c3cn(C45CC6CC(CC(C6)C4)C5)nc3C(=O)N(c3ccccc3)c3ccccc3)CC2)cc1` [Example 69, 1-[adamantan-1-yl]-4-{2-[(1-{4-[({3-nitro-4-[(tetrahydro-2H-pyran-4-ylmethyl)amino]phenyl}sulfonyl)carbamoyl]phenyl}piperidin-4-ylidene)methyl]phenyl}-N,N-diphenyl-1H-pyrazole-3-carboxamide] the value was 789 nM; for `O=C(NS(=O)(=O)c1ccc(NCC2CCOCC2)c([N+](=O)[O-])c1)c1ccc(N2CCN(Cc3ccccc3N(C(=O)CCc3ccccc3)C3CC4CC3C3CCCC43)CC2)cc1` (centres unmarked) [Example 70, N-({3-nitro-4-[(tetrahydro-2H-pyran-4-ylmethyl)amino]phenyl}sulfonyl)-4-(4-{2-[octahydro-1H-4,7-methanoinden-5-yl(3-phenylpropanoyl)amino]benzyl}piperazin-1-yl)benzamide], 35.4 nM.
Regarding `O=C(NS(=O)(=O)c1ccc(NCC2CCOCC2)c([N+](=O)[O-])c1)c1ccc(N2CCC(=Cc3ccccc3-c3ccc(CN4C5CCCC4CC5)s3)CC2)cc1` [Example 71, 4-[4-(2-{5-[8-azabicyclo[3.2.1]oct-8-ylmethyl]-2-thienyl}benzylidene)piperidin-1-yl]-N-({3-nitro-4-[(tetrahydro-2H-pyran-4-ylmethyl)amino]phenyl}sulfonyl)benzamide], the Ki was below 20 nM.
With `C[C@@H]1[C@@H](Nc2ccc(C=C3CCN(c4ccc(C(=O)NS(=O)(=O)c5ccc(NCC6CCOCC6)c([N+](=O)[O-])c5)cc4)CC3)cc2)C[C@H]2C[C@@H]1C2(C)C` [Example 72, N-({3-nitro-4-[(tetrahydro-2H-pyran-4-ylmethyl)amino]phenyl}sulfonyl)-4-[4-(4-{[(1S,2S,3S,5R)-2,6,6-trimethylbicyclo[3.1.1]hept-3-yl]amino}benzylidene)piperidin-1-yl]benzamide], the Ki came to 287 nM.
